Measurements from PubChem BioAssay (NCI).
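96-well plates; 48 h exposure; 5 concentrations. Endpoints by linear interpolation between flanking doses. Not reached: highest tested concentration assigned. Abbreviation: GI50, concentration required for 50% inhibition of growth. The concentration for full growth arrest is given as TGI.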

Tests used:
Experiment in all cases: inhibition of tumour cell growth, NCI panel, 48 h
CCRF-CEM leukemia = test system: CCRF-CEM leukemia
BT-549 breast = test system: BT-549 breast
HS 578T breast = test system: HS 578T breast
KM12 colon = test system: KM12 colon
MOLT-4 leukemia = test system: MOLT-4 leukemia
OVCAR-3 ovarian = test system: OVCAR-3 ovarian
NCI-H460 lung = test system: NCI-H460 lung
NCI-H226 lung = test system: NCI-H226 lung
UACC-62 melanoma = test system: UACC-62 melanoma
NCI-H23 lung = test system: NCI-H23 lung
DU-145 prostate = test system: DU-145 prostate
U251 CNS = test system: U251 CNS
TK-10 renal = test system: TK-10 renal
HCC-2998 colon = test system: HCC-2998 colon
OVCAR-8 ovarian = test system: OVCAR-8 ovarian
HCT-15 colon = test system: HCT-15 colon
PC-3 prostate = test system: PC-3 prostate
UO-31 renal = test system: UO-31 renal
NCI-H522 lung = test system: NCI-H522 lung
OVCAR-4 ovarian = test system: OVCAR-4 ovarian
SR leukemia = test system: SR leukemia
HOP-62 NSCLC = test system: HOP-62 NSCLC
A498 renal = test system: A498 renal
K-562 leukemia = test system: K-562 leukemia
SK-MEL-5 melanoma = test system: SK-MEL-5 melanoma
SF-268 CNS = test system: SF-268 CNS
M14 melanoma = test system: M14 melanoma
SW-620 colon = test system: SW-620 colon
ACHN renal = test system: ACHN renal
SNB-19 CNS = test system: SNB-19 CNS
SNB-75 CNS = test system: SNB-75 CNS
HT29 colon = test system: HT29 colon
LOX IMVI melanoma = test system: LOX IMVI melanoma
SF-539 CNS = test system: SF-539 CNS
MCF7 breast = test system: MCF7 breast
COLO 205 colon = test system: COLO 205 colon
MALME-3M melanoma = test system: MALME-3M melanoma
A549 NSCLC = test system: A549 NSCLC
T-47D breast = test system: T-47D breast
EKVX NSCLC = test system: EKVX NSCLC
CAKI-1 renal = test system: CAKI-1 renal
SK-OV-3 ovarian = test system: SK-OV-3 ovarian
HOP-92 NSCLC = test system: HOP-92 NSCLC
UACC-257 melanoma = test system: UACC-257 melanoma
SF-295 CNS = test system: SF-295 CNS
IGROV1 ovarian = test system: IGROV1 ovarian
RPMI-8226 leukemia = test system: RPMI-8226 leukemia
HL-60(TB) leukemia = test system: HL-60(TB) leukemia
MDA-MB-435 = test system: MDA-MB-435
786-0 renal = test system: 786-0 renal
OVCAR-5 ovarian = test system: OVCAR-5 ovarian
MDA-MB-231 breast = test system: MDA-MB-231 breast
RXF 393 renal = test system: RXF 393 renal
SN12C renal = test system: SN12C renal
SK-MEL-2 melanoma = test system: SK-MEL-2 melanoma
SK-MEL-28 melanoma = test system: SK-MEL-28 melanoma
NCI/ADR-RES ovarian = test system: NCI/ADR-RES ovarian
HCT-116 colon = test system: HCT-116 colon

## S=c1ssnc1-c1ccccn1
CCRF-CEM leukemia
  GI50: 1.27 µM
  TGI: 4.24 µM
BT-549 breast
  GI50: 6.38 µM
  TGI: 28.7 µM
HS 578T breast
  GI50: 2.15 µM
  TGI: 7.86 µM
KM12 colon
  GI50: 3.72 µM
  TGI: 15.4 µM
MOLT-4 leukemia
  GI50: 1.27 µM
  TGI: 4.58 µM
OVCAR-3 ovarian
  GI50: 3.21 µM
  TGI: 17.8 µM
NCI-H460 lung
  GI50: 1.82 µM
  TGI: 11.6 µM
NCI-H226 lung
  GI50: 7.08 µM
  TGI: 25.1 µM
UACC-62 melanoma
  GI50: 5.31 µM
  TGI: 21.1 µM
NCI-H23 lung
  GI50: 3.77 µM
  TGI: 18.4 µM
DU-145 prostate
  GI50: 1.34 µM
  TGI: 13.8 µM
U251 CNS
  GI50: 4.63 µM
  TGI: 33.2 µM
TK-10 renal
  GI50: 5.04 µM
  TGI: 32.4 µM
HCC-2998 colon
  GI50: 3.4 µM
  TGI: 12.7 µM
OVCAR-8 ovarian
  GI50: 3.17 µM
  TGI: 23 µM
HCT-15 colon
  GI50: 2.2 µM
  TGI: 15.7 µM
PC-3 prostate
  GI50: 3 µM
  TGI: > 34.6 µM
UO-31 renal
  GI50: 3.51 µM
  TGI: 22.2 µM
NCI-H522 lung
  GI50: 1.84 µM
  TGI: 4.12 µM
OVCAR-4 ovarian
  GI50: 9.36 µM
  TGI: > 100 µM
SR leukemia
  GI50: 0.521 µM
  TGI: > 21.5 µM
HOP-62 NSCLC
  GI50: 3.83 µM
  TGI: 27.9 µM
A498 renal
  GI50: 6.8 µM
  TGI: 31.8 µM
K-562 leukemia
  GI50: 1.4 µM
  TGI: 16.2 µM
SK-MEL-5 melanoma
  GI50: 8.81 µM
  TGI: > 37.6 µM
SF-268 CNS
  GI50: 2.71 µM
  TGI: 20.1 µM
M14 melanoma
  GI50: 2.58 µM
  TGI: 19.6 µM
SW-620 colon
  GI50: 2.72 µM
  TGI: 14.5 µM
ACHN renal
  GI50: 2.25 µM
  TGI: 14.7 µM
SNB-19 CNS
  GI50: 11.2 µM
  TGI: > 94.8 µM
SNB-75 CNS
  GI50: 3.13 µM
  TGI: > 38.6 µM
HT29 colon
  GI50: 5.28 µM
  TGI: > 40.7 µM
LOX IMVI melanoma
  GI50: 2.54 µM
  TGI: 12.1 µM
SF-539 CNS
  GI50: 2.52 µM
  TGI: 15.1 µM
MCF7 breast
  GI50: 2.84 µM
  TGI: > 35.9 µM
COLO 205 colon
  GI50: 3.96 µM
  TGI: 17.8 µM
MALME-3M melanoma
  GI50: 7.77 µM
  TGI: 36.1 µM
A549 NSCLC
  GI50: 8.92 µM
  TGI: 37.9 µM
T-47D breast
  GI50: 5.59 µM
  TGI: > 55.5 µM
EKVX NSCLC
  GI50: 5.64 µM
  TGI: 22 µM
CAKI-1 renal
  GI50: 3.07 µM
  TGI: 16.3 µM
SK-OV-3 ovarian
  GI50: 12.8 µM
  TGI: > 86.9 µM
HOP-92 NSCLC
  GI50: 1.67 µM
  TGI: 6.73 µM
UACC-257 melanoma
  GI50: 3.1 µM
  TGI: 8.47 µM
SF-295 CNS
  GI50: 5.17 µM
  TGI: 24.9 µM
IGROV1 ovarian
  GI50: 1.81 µM
  TGI: 11 µM
RPMI-8226 leukemia
  GI50: 2.58 µM
  TGI: 29.3 µM
HL-60(TB) leukemia
  GI50: 1.37 µM
  TGI: 4.65 µM
MDA-MB-435
  GI50: 3.28 µM
  TGI: 16.3 µM
786-0 renal
  GI50: 2.54 µM
  TGI: > 25.4 µM
OVCAR-5 ovarian
  GI50: 5.38 µM
  TGI: 25.1 µM
MDA-MB-231 breast
  GI50: 3.44 µM
  TGI: 22 µM
RXF 393 renal
  GI50: 3.05 µM
  TGI: 6.47 µM
SN12C renal
  GI50: 5.91 µM
  TGI: 32 µM
SK-MEL-2 melanoma
  GI50: 1.88 µM
  TGI: 5.73 µM
SK-MEL-28 melanoma
  GI50: 2.87 µM
  TGI: 13 µM
NCI/ADR-RES ovarian
  GI50: 3.84 µM
  TGI: 39.7 µM
HCT-116 colon
  GI50: 1.24 µM
  TGI: > 20.1 µM
